Tests used:
[1] = molecular target: neutral endopeptidase (NEP), purified NEP (E.C.3.4.24.11) (Homo sapiens, UniProt P08473); test: In vitro investigation of the NEP-inhibitory effect (hydrolytic degradation of met-enkephalin); type: biochemical; conditions: substrate met-enkephalin, 37° C., pH 7.4
Description: 2. In vitro investigation of the NEP-inhibitory effect of the substances and determination of the affinity of the substance molecules for the enzyme molecule. […] The Ki (inhibitor constant) of each substance was determined as a measure of its inhibitory activity. The Ki of a test substance with enzyme-inhibiting activity is the dissociation constant for the enzyme/test substance complex or the (enzyme/substrate)--test substance complex and has units of concentration.
To carry out the test, respective 100 μl samples of various incubation solutions containing 10 ng of purified NEP (E.C.3.4.24.11) and in each case different amounts of test substance and of substrate (met-enkephalin)and 50 mM tris buffer (=tris(hydroxymethyl)aminomethane/HCl, pH 7.4) were prepared.
For each test substance, 24 different incubation solutions were prepared with 3 different test substance concentrations respectively combined with met-enkephalin contents of 2, 5, 7, 10, 12, 15, 40 and 100 μm.
In each test, two types of control incubation solutions were also processed, on the one hand enzyme controls which contain no test substance, and on the other hand substrate controls which contain neither enzyme nor test substance.
The incubation solutions were incubated in a shaking water bath at 37° C. for 45 minutes. The enzyme reaction was started after 15 minutes by adding the substrate (metenkephalin) and was stopped at the end of the incubation time by heating at 95° C. for 5 minutes. The stopped incubation solution was then centrifuged at 12,000×g for 3 minutes, and the concentrations of unreacted substrate and of hydrolysis products formed by the enzymatic reaction were determined in the supernatant. For this purpose, samples of each of the respective supernatants were fractionated by HPLC (high-pressure liquid chromatography) on hydrophobized silica gel, and the products of the enzymatic reaction and unreacted substrate were determined by photometry at a wavelength of 205 nm. The HPLC separation was carried out using a column (4.6×250 mm) which contains Encapharm™ 100 RP18 having an average particle size of 5 μm as reversed phase separation material. The solvent flow rate was 1.4 ml/min, and the column was warmed to 40° C. Mobile phase A was 5 mM H3 PO4, pH 2.5, and mobile phase B was acetonitrile +1% 5 mM H3 PO4, pH 2.5.
The Ki for each test substance was calculated in a known manner from the concentrations of hydrolysis products and unreacted substrate measured in the various samples. […] The example numbers indicated in Table B refer to the following preparation examples.

[2] = In vivo determination of the effect on diuresis/natriuresis in volume-loaded rats; design: species or system rat (male Wistar); conditions: urine collected over 60 min
Description: 4. In vivo determination of the effect of the substances on diuresis/natriuresis in volume-loaded rats.
The in vivo activity was investigated in volume-loaded rats. In this experiment a high cardiac filling pressure was caused by infusion of isotonic sodium chloride solution, which results in ANP release and thus diuresis/natriuresis.
The tests are carried out with male Wistar rats having a body weight of 200-400 g. Under neuroleptanalgesia (fentanyl; Hypnorm™, manufactured by Janssen), a catheter was placed in the right femoral vein for the baseline infusion and the volume loading with isotonic sodium chloride solution. After the abdominal cavity had been opened, a second catheter was inserted into the bladder, and the urethra was tied off so that it was possible to measure the urine volume, natriuresis and kaliuresis.
The abdominal cavity was closed again and the animals received a continuous infusion with sodium chloride solution (0.5 ml/100 g body weight) throughout the 2 hours of the test. After an equilibration period of 30 minutes, in a preliminary phase before the test substance was given, urine samples were collected three times over a period of 10 minutes in each case. These preliminary values ("predrug" values) were determined in order to check that there was a continuous flow of urine in the test animals.
The solutions containing test substances were then administered intravenously (bolus injection into the femoral vein) or orally (by gavage) to groups of 10 rats each. With both modes of administration, in each case one control group of animals received only placebo solutions which contained no active substance. 5 Minutes after i.v. administration or 120 minutes after oral administration of the substances, the rats were loaded with an increased volume of sodium chloride solution i.v. (2 ml/100 g body weight in 2 minutes) and the urine was collected over a period of 60 min. The amounts of urine produced in this period were determined, and the sodium and potassium contents therein were measured. The increase in excretion which took place under volume loading by comparison with the preliminary values was deduced from the resulting amounts of urine.
Furthermore, the amounts of sodium and potassium excreted under volume loading after administration of test substance are also indicated as a percentage of the amounts of sodium and potassium excreted under volume loading after placebo administration.

Sequence of neutral endopeptidase (NEP), purified NEP (E.C.3.4.24.11) (P08473 whole entry): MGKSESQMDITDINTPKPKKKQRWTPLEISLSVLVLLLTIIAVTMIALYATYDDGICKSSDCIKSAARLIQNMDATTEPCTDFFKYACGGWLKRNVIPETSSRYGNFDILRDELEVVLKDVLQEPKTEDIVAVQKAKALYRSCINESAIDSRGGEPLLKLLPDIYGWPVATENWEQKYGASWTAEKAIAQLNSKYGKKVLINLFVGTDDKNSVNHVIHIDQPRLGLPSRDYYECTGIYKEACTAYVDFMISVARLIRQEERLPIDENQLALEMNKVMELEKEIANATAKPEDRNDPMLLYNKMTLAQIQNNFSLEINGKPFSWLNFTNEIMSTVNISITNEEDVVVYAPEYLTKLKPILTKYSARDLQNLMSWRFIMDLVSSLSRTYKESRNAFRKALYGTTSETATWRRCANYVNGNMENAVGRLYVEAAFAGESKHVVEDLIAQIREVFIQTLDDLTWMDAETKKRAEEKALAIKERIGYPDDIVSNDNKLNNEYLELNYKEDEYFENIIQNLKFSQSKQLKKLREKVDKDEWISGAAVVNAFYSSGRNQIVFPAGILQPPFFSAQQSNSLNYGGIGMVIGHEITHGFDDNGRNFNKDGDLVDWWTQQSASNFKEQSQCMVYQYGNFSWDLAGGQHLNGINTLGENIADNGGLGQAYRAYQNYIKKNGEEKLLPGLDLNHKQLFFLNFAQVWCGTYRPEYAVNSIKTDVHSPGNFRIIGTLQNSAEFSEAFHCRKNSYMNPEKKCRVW

O=C(O)CN1C(=O)[C@@H](NC(=O)C2(C[C@@H](CCc3ccccc3)C(=O)O)CCCC2)CCc2ccccc21 [Example 8, (3S,2'R)-3-[1-(2'-Carboxy-4'-phenylbutyl)cyclopentane-1-carbonylamino]-2,3,4,5-tetrahydro-2-oxo-1H-1-benzazepine-1-acetic acid]
Ki [1]: 0.4 nM | Increase in the excretion of urine under volume loading after administration of test substance as % based on the increase after placebo administration ([2]; 0.1 mg/kg i.v.): 123.5% | Increase in the excretion of urine under volume loading after administration of test substance as % based on the increase after placebo administration ([2]; 1.0 mg/kg i.v.): 153.7% | K excretion under volume loading, amount excreted after administration of test substance as % of the amount excreted after placebo administration ([2]; 0.1 mg/kg i.v.): 80.8% | K excretion under volume loading, amount excreted after administration of test substance as % of the amount excreted after placebo administration ([2]; 1.0 mg/kg i.v.): 121.8% | Na excretion under volume loading, amount excreted after administration of test substance as % of the amount excreted after placebo administration ([2]; 0.1 mg/kg i.v.): 160.9% | Na excretion under volume loading, amount excreted after administration of test substance as % of the amount excreted after placebo administration ([2]; 1.0 mg/kg i.v.): 230.4%

From patent US5677297A, “Benzazepine-, benzoxazepine- and benzothiazepine-n-acetic acid derivatives, process for their preparation and pharmaceutical compositions containing them” (Solvay Pharmaceuticals GmbH, priority 1995, dated 1997)
